A short description of series [1]: Protein binding, Rapid Equilibrium Dialysis. It counts as in vitro ADME. Particulars: 15 μM. The method, then:
Studies were performed using the Rapid Equilibrium Dialysis (RED) device (Linden Bioscience). Inserts were soaked in water for 10 min×2, then removed and drained immediately prior to use. […] All experiments were performed in duplicate and each chamber was sampled in duplicate. The samples were incubated for 4-6 h at 37° C. in a rotating incubator (100 rpm). Compound 2 was quantified using LC-MS/MS. Data from duplicate samples each sampled twice.
A general note: In equilibrium dialysis only unbound substance equilibrates across the membrane.

A short description of series [2]: Pharmacokinetics, single bolus intravenous injection. It counts as in vivo, beagle dogs. Particulars: beagle, dog, plasma, 5 mg/kg. An excerpt: Pharmacokinetic parameters were estimated using noncompartmental analysis within WinNonlin v. 4.1. Quantification of Compound 2 was done by HPLC-MS/MS after extraction from plasma with acetonitrile. […] For rising dose experiments measuring exposure for each species, sets containing several animals were singly dosed at a given dose. Results from single-dose experiments are shown in FIG. 10A, Table 43, and in FIG. 10B and Table 44, respectively. […] C0 is initial concentration extrapolated to time zero. AUCINF is area under the plasma-concentration time curve from time zero extrapolated to the infinite time. CL is clearance; Vss is steady state volume of distribution. T1/2 is half-life.

Series [3] deals with MV-4-11 (human acute myeloid leukemia) xenograft. The series is described as follows: In vivo efficacy, mouse xenograft. Particulars: 150 mg/kg IP twice-weekly for 3 weeks. The method, then: The human cell line MV-4-11 (human acute myeloid leukemia) was established as subcutaneous xenografts in nu/nu female mice. Animals were randomized by tumor volume and distributed into groups of ten animals each. Treatments were initiated when tumors averaged about 200 mm^3 in volume. End points for each group were determined based on body weight nadir, adverse clinical observations, or tumor volumes exceeding maximum threshold of 2000 mm^3.
[…]. Responses were assessed by tumor growth inhibition (TGI) and tumor growth delay (TGD). TGI and TGD in the treatment group were evaluated against the vehicle control group.

The test system of series [4] is histone H3 phosphorylation in femur bone marrow. The series is described as follows: pHH3 immunohistochemistry in mouse bone marrow. It is filed as in vivo. Conditions: for bone marrow cells positive for pHH3, times less evident than vehicle: 170 mg/kg IP BIW×3. Here is the method: For each study, animals were randomized by tumor volume and distributed into groups of ten animals each. […] Inhibition of histone H3 (HH3) phosphorylation was evaluated in HCT 116 xenograft tumors, mouse femur bone marrow, and mouse skin punch biopsy sections by immunohistochemistry (IHC). […] The tumors were collected 6 hrs post-dose on day 4, 11, 18 and on day 25 (one week after completion of dosing phase of the experiment). Phosphorylated histone H3 (pHH3) was detected by immunohistochemistry staining of tissue sections with the antibody # 9701 (Cell Signaling Technology, Inc.), which recognizes phosphorylation of Ser10 residue in histone H3 protein.

The subject of series [5] is histone H3 phosphorylation in skin biopsies. The series is described as follows: Clinical pharmacodynamics, skin punch biopsies. It counts as in vivo, human. Particulars: Cycle 1, Day 1, 3-7 hours after start of infusion. The method, then: Clinical pharmacodynamic assessments were performed as follows. Skin punch biopsy samples were collected prior to (e.g., just prior to or up to 14 days prior to) treatment and during Cycle 1, Day 1 of treatment at between 3 and 7 hours after the start of the 3-hour infusion. Skin punch biopsy samples were analyzed for inhibition of histone H3 phosphorylation.

For series [6], the system named is PC3 prostate tumor xenograft. Kind of series: In vivo efficacy, mouse xenograft. The method, then: (§1) Percent TGI is then calculated with the following equation: […]
(§2) Time To Endpoint (TTE) was calculated for each individual animal to reach the predetermined study end point where the tumor volume becomes 1200 mm^3 or 10% of body weight or a greater than 20% body weight loss for two sequential measurements. The TTE is calculated and the median value is recorded for the group. Tumor Growth Delay (TGD) is then calculated with the following equation: […]
PC3 prostate tumor fragments (1 mm^3) were implanted subcutaneously in the right hind flank of mice. After 21 days, when tumors reached a volume of approximately 120 mm^3, animals were weighed, randomized by tumor volume (l×w×h×0.52), and assigned to the various study groups before initial dosing.

The next series has as its system MiaPaca2. The series is described as follows: Cell Proliferation ELISA, BrdU. It counts as cell-based. Particulars: Homo sapiens, MIA PaCa-2; MiaPaca2 (Pancreatic), 96 hr. In general terms: In an ELISA, binding on a coated surface is turned into a signal by an enzyme label.
Series [7] has as its system MDA-MB-231 breast cancer xenograft. The series is described as follows: In vivo efficacy, mouse xenograft. Here is the method:
as §1, §2
MDA-MB-231 breast cancer cells [200 μL of a 2.5×10^7 cells/mL suspension (1:1 DPBS with cells:Matrigel)] were implanted subcutaneously in the right hind flank of mice. After 13 days, when tumors reached n average volume of approximately 95 mm^3, animals were weighed, randomized by tumor volume (l×w×h×0.52), and assigned to the various study groups before initial dosing.

The test system of series [8] is variety of mice xenograft models representing a range of tissue types. The series is described as follows: In vivo efficacy across xenograft models (summary). Particulars: dose-dependent, well tolerated doses.
For series [9], the system named is broad panel of cancer cell lines. The series is described as follows: cells. Conditions: Homo sapiens, 96 h, read-out: anti-proliferative IC50 values.
Procedure: (§3) Cellular proliferation was assessed using the Cell Proliferation ELISA, bromodeoxyuridine (BrdU) kit (Roche) including reagents, according to the kit protocol.
The test system of the next series is HT-29. The series is described as follows: cells. Particulars: Homo sapiens, HT-29, 96 h, read-out: BrdU IC50.
A further series deals with HCT 116 cells. Kind of series: Fluorescent imaging (DNA and tubulin). It is filed as cell-based, human. Particulars: 16 nM, 72 hr. The method, then:
Cells were then fixed with 4% paraformaldehyde for 20 min at room temperature, washed with 1×PBS three times, permeabilized with 0.1% Triton® X-100 nonionic surfactant for 5 min at room temperature, washed with 1×PBS twice, blocked with 10% fetal bovine serum (FBS) in PBS for 2 hr at room temperature. The cells were incubated in a diluted alpha-tubulin primary antibody solution in 10% FBS for 2 days at 4° C., and stained with DAPI (DNA/.blue) and with a diluted FITC-labeled secondary antibody (tubulin/green) solutions in 10% FBS for 1 hr at room temperature away from light. Cells were then washed in 1×PBS and the coverslips were mounted on slides and analyzed with a […]2 fluorescence microscope with a 63× oil immersion objective. Images were captured on a […] camera and analyzed using Image-Pro software. For both images captured, the same objective was used.

Each structure is given as a SMILES string.

Procedure for HT-29: as §3
Procedure for MiaPaca2: as §3

`O=C(Nc1cccc(Cl)c1)Nc1ncc(CCNc2ncnc3ccsc23)s1` [Compound 2, 1-(3-chlorophenyl)-3-{5-[2-(thieno[3,2-d]pyrimidin-4-ylamino)ethyl]thiazol-2-yl}-urea]: in series [1] (dog plasma), the mean percentage protein-bound entry is “greater than or equal to 99.9%”. In addition, the mean percentage protein-bound result in series [1] (human plasma) was “greater than or equal to 99.9%”. For the same compound, in [1] (mouse plasma), the mean percentage protein-bound entry is recorded as “greater than or equal to 99.9%”. In series [2], this compound had an AUC(0-inf) of 12.3 µg·h/mL, a C0 of 2.8 µg/mL, a clearance of 0.408 L/h/kg and a half-life of 1.1 h. Also, in series [2] (read-out: Vss), the Vd was determined as 1 L/kg.
Turning to `CS(=O)(=O)O.O=C(Nc1cccc(Cl)c1)Nc1ncc(CCNc2ncnc3ccsc23)s1` [Compound 1, 1-(3-chlorophenyl)-3-{5-[2-(thieno[3,2-d]pyrimidin-4-ylamino)ethyl]thiazo}-urea], the tumor growth delay in [3] worked out at 10 days. In series [3] (p-value 0.0008), the “Percent tumor growth inhibition (% TGI)” value is given as 75.56%. Moreover, the “bone marrow cells positive for pHH3, times less evident than vehicle” value was 3 times in series [4] (day 11) and 7 times in series [4] (day 18). Besides, the “Histone H3 phosphorylation in bone marrow” value in series [4] (day 25) is reported as “recovered to normal levels”. In addition, the “doses at which inhibition of pHH3 was observed in skin biopsies of patients” value in [5] is listed as not below 240 mg/m^2. Moreover, the “% TGI” value in [6] (42.5 mg/kg biw × 3) came to 39.5%; in series [6] (85 mg/kg biw × 3), 63.6%; in series [6] (170 mg/kg biw × 3) it was 67.5%; in series [7] (42.5 mg/kg biw × 3), 20.6%; in [7] (85 mg/kg biw × 3), 19.2%; in [7] (170 mg/kg biw × 3), 73.8%. In addition, the TGD in [6] (42.5 mg/kg biw × 3) was 0 days; in series [6] (85 mg/kg biw × 3), 12 days; in [6] (170 mg/kg biw × 3), 25 days; in [7] (42.5 mg/kg biw × 3), 3.5 days; in series [7] (85 mg/kg biw × 3), 4.0 days; in series [7] (170 mg/kg biw × 3), 14.1 days. Moreover, the IC50 is 9.1 nM in the series with MiaPaca2, 2 to 10 nM in series [9] and 24.4 nM in the series with HT-29. Also, the tumor growth inhibition in series [8] was 58-99%. Moreover, in the series on HCT 116 cells, the cell morphology entry is given as “formation of large polyploid cells”.

What is called AUC(0-inf) is total exposure, with the tail of the curve extrapolated. High values mean high exposure, low ones low exposure. One may read the clearance as the rate of elimination divided by the concentration. The term half-life denotes the time in which the quantity being followed falls by half. As usually defined, the IC50 is the concentration at which inhibition is half-maximal.

The values are drawn from patent US20110293745A1, “AURORA KINASE INHIBITORS” (SUNESIS PHARMACEUTICALS, INC., priority 2008, published 2011).
